Measured values as given in US10857121B2, “Use of malononitrile compounds for protecting animals from parasites” (MERIAL INC., priority 2014, dated 2020).

What was measured:
[1] = tested on: Haematobia irritans; experiment: In vivo efficacy against Haematobia irritans in cattle, topical pour-on; conditions: for % Efficacy vs. Haematobia irritans at 5 h: 5 h after infestation, Day 13
[2] = tested on: Haematobia irritans; experiment: as above; conditions: for % Efficacy vs. Haematobia irritans at 5 h: 5 h after infestation; for % Efficacy vs. Haematobia irritans at 24 h: 24 h after infestation
Method: A representative compound of the invention (II-35) was evaluated for efficacy against 20 Haematobia irritans in cattle when applied topically. Four treatment groups and one untreated control group containing four animals each were formed. Treatment Group 1 was an untreated control and Treatment Group 5 was a positive control group treated with a pour-on product containing 5% (w/v) cypermethrin (Cypermil Pour-on). The animals in Treatment Groups 2, 3 and 4 were treated with a pour-on composition containing compound (II-35) to deliver doses of 20 mg/kg, 10 mg/kg and 5 mg/kg body weight, respectively. The pour-on formulations comprised a mixture of 20% (w/v), 10% (w/v) and 5% (w/v) of the active dissolved in a carrier comprising 50% (v/v)N-methylpyrrolidone, 5% (v/v) dimethyl isosorbide and qs with Miglyol® 840. All animals were infested with approximately 200 Haematobia irritans flies on Days 1, 7, 14 and 21. As the source of flies was natural and the amount of flies decreased, the infestations On Days 28 and 35 animals were with approximately 100 horn flies due to a lack of flies. Additionally, Treatment Groups 3 and 5 were not infested on Day 35, due to the lack of flies. The flies were counted and recorded five hours following infestation and on the following day (at 24 h). The counts done on Day 2 were at 48 hours after treatment.
The % efficacy (% reduction) of the each treatment group compared with the untreated control group is shown in Tables 2 and 3 below and in FIG. 1.

For `C#Cc1ccc(CC(C#N)(C#N)c2ccc(F)cc2)cc1` [II-35], the “% Efficacy vs. Haematobia irritans at 5 h” value ([1]; pour-on 10 mg/kg (Group 3)) was 93.8%, the “efficacy vs. Haematobia irritans” value ([1]; pour-on 10 mg/kg (Group 3), until Day 13, after 5 hours post infestation) was “above 93%” and the “% Efficacy vs. Haematobia irritans at 5 h” value ([1]; pour-on 20 mg/kg (Group 2)) was 97.7%. For the same compound, the “% Efficacy vs. Haematobia irritans at 5 h” value ([2]; pour-on 5 mg/kg (Group 4), Day 1) was 99.5%, the “% Efficacy vs. Haematobia irritans at 5 h” value ([2]; pour-on 5 mg/kg (Group 4), Day 7) was 98.3% and the “% Efficacy vs. Haematobia irritans at 5 h” value ([2]; pour-on 5 mg/kg (Group 4), Day 13) was 93.2%. For the same compound, the “% Efficacy vs. Haematobia irritans at 5 h” value ([2]; pour-on 5 mg/kg (Group 4), Day 21) was 80.0%, the “% Efficacy vs. Haematobia irritans at 5 h” value ([2]; pour-on 5 mg/kg (Group 4), Day 28) was 64.1% and the “% Efficacy vs. Haematobia irritans at 5 h” value ([2]; pour-on 5 mg/kg (Group 4), Day 35) was 51.5%. The “% Efficacy vs. Haematobia irritans at 24 h” value ([2]; pour-on 5 mg/kg (Group 4), Day 2) was 100.0%, the “% Efficacy vs. Haematobia irritans at 24 h” value ([2]; pour-on 5 mg/kg (Group 4), Day 8) was 99.7% and the “% Efficacy vs. Haematobia irritans at 24 h” value ([2]; pour-on 5 mg/kg (Group 4), Day 14) was 100.0%. The “% Efficacy vs. Haematobia irritans at 24 h” value ([2]; pour-on 5 mg/kg (Group 4), Day 22) was 93.5%, the “% Efficacy vs. Haematobia irritans at 24 h” value ([2]; pour-on 5 mg/kg (Group 4), Day 29) was 95.5% and the “% Efficacy vs. Haematobia irritans at 24 h” value ([2]; pour-on 5 mg/kg (Group 4), Day 36) was 88.1%. For the same compound, the “efficacy vs. Haematobia irritans” value ([2]; pour-on 5 mg/kg (Group 4), until Day 13, after 5 hours post infestation) was “above 93%”, the “efficacy vs. Haematobia irritans” value ([2]; pour-on 5 mg/kg (Group 4), until Day 29, after 24 hours post infestation) was “above 93%” and the “% Efficacy vs. Haematobia irritans at 5 h” value ([2]; pour-on 10 mg/kg (Group 3), Day 1) was 98.9%. For the same compound, the “% Efficacy vs. Haematobia irritans at 5 h” value ([2]; pour-on 10 mg/kg (Group 3), Day 7) was 98.2%, the “% Efficacy vs. Haematobia irritans at 5 h” value ([2]; pour-on 10 mg/kg (Group 3), Day 21) was 68.3% and the “% Efficacy vs. Haematobia irritans at 5 h” value ([2]; pour-on 10 mg/kg (Group 3), Day 28) was 65.6%. The “% Efficacy vs. Haematobia irritans at 24 h” value ([2]; pour-on 10 mg/kg (Group 3), Day 2) was 100.0%, the “% Efficacy vs. Haematobia irritans at 24 h” value ([2]; pour-on 10 mg/kg (Group 3), Day 8) was 100.0% and the “% Efficacy vs. Haematobia irritans at 24 h” value ([2]; pour-on 10 mg/kg (Group 3), Day 14) was 100.0%. For the same compound, the “% Efficacy vs. Haematobia irritans at 24 h” value ([2]; pour-on 10 mg/kg (Group 3), Day 22) was 93.1%, the “% Efficacy vs. Haematobia irritans at 24 h” value ([2]; pour-on 10 mg/kg (Group 3), Day 29) was 69.2% and the “efficacy vs. Haematobia irritans” value ([2]; pour-on 10 mg/kg (Group 3), until Day 22, after 24 hours post infestation) was “above 93%”. For the same compound, the “% Efficacy vs. Haematobia irritans at 5 h” value ([2]; pour-on 20 mg/kg (Group 2), Day 1) was 97.8%, the “% Efficacy vs. Haematobia irritans at 5 h” value ([2]; pour-on 20 mg/kg (Group 2), Day 7) was 99.2% and the “% Efficacy vs. Haematobia irritans at 5 h” value ([2]; pour-on 20 mg/kg (Group 2), Day 21) was 86.6%. The “% Efficacy vs. Haematobia irritans at 5 h” value ([2]; pour-on 20 mg/kg (Group 2), Day 28) was 85.0%, the “% Efficacy vs. Haematobia irritans at 5 h” value ([2]; pour-on 20 mg/kg (Group 2), Day 35) was 65.8% and the “% Efficacy vs. Haematobia irritans at 24 h” value ([2]; pour-on 20 mg/kg (Group 2), Day 2) was 100.0%. For the same compound, the “% Efficacy vs. Haematobia irritans at 24 h” value ([2]; pour-on 20 mg/kg (Group 2), Day 8) was 98.3%, the “% Efficacy vs. Haematobia irritans at 24 h” value ([2]; pour-on 20 mg/kg (Group 2), Day 14) was 100.0% and the “% Efficacy vs. Haematobia irritans at 24 h” value ([2]; pour-on 20 mg/kg (Group 2), Day 22) was 97.9%. For the same compound, the “% Efficacy vs. Haematobia irritans at 24 h” value ([2]; pour-on 20 mg/kg (Group 2), Day 29) was 96.9%, the “% Efficacy vs. Haematobia irritans at 24 h” value ([2]; pour-on 20 mg/kg (Group 2), Day 36) was 85.6% and the “efficacy vs. Haematobia irritans” value ([2]; pour-on 20 mg/kg (Group 2), until Day 13, after 5 hours post infestation) was “above 93%”. For the same compound, the “efficacy vs. Haematobia irritans” value ([2]; pour-on 20 mg/kg (Group 2), until Day 29, after 24 hours post infestation) was “above 93%”.
